Laboratory results published in the supplement of paper PMC11451515.

Tests used:
Test in all cases: AUC of viability dose-response curve (% viability x log10 dose units); higher = less sensitive
Settings in all cases: 48 h
P12-Ichikawa = system: P12-Ichikawa
Outline: (§1)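 Leukemia cells adapted to each medium (500 or 1000 cells/well, 1536-well plates) were exposed to library compounds in DMSO for 48 h at 37°C at 11 threefold doses, 47 μM to 0.79 nM. Luminescence by CellTiter-Glo One was normalised per plate to DMSO and cell-free wells, then fitted with a four-parameter log-logistic curve on log10 dose. Curves above full viability were scaled and quality-control failures removed before area under the curve was integrated by trapezoidal rule.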

SEM cells = system: SEM cells
Outline: as §1

NOMO1 = system: NOMO1
Outline: as §1

[1] = RPMI 5 mM glucose + 10% dialyzed FBS

Compound | AUC of viability dose-response curve (P12-Ichikawa; HPLM + 10% dialyzed FBS) | AUC of viability dose-response curve (P12-Ichikawa; RPMI 5 mM glucose + 10% FBS) | AUC of viability dose-response curve (P12-Ichikawa; [1]) | AUC of viability dose-response curve (SEM cells; HPLM + 10% dialyzed FBS) | AUC of viability dose-response curve (SEM cells; RPMI 5 mM glucose + 10% FBS) | AUC of viability dose-response curve (SEM cells; [1]) | AUC of viability dose-response curve (NOMO1; HPLM + 10% dialyzed FBS) | AUC of viability dose-response curve (NOMO1; RPMI 5 mM glucose + 10% FBS) | AUC of viability dose-response curve (NOMO1; [1])
O=C(NCc1ccccc1)c1csc(Nc2ccncn2)n1 | 386 | 358 | 367 | 310 | 287 | 310 | 345 | 331 | 335
CCCCc1nc2cc(/C=C/C(=O)NO)ccc2n1CCN(CC)CC | 345 | 337 | 348 | 344 | 345 | 303 | 370 | 326 | 349
COc1cc(Cl)cn2c(-c3cccc(NC4CNC4)n3)cnc12 | 459 | 458 | 464 | 453 | 442 | 440 | 472 | 468 | 454
Nc1ccn([C@H]2CS[C@@H](CO)O2)c(=O)n1 | 440 | 471 | 464 | 454 | 445 | 470 | 459 | 464 | 472
C=CC(=O)Nc1ccc2ncnc(Nc3ccc(OCc4cccc(F)c4)c(Cl)c3)c2c1 | 404 | 404 | 404 | 370 | 400 | 383 | 355 | 368 | 355
Cc1ccc(/C=N/NC(=O)c2ccccc2Oc2ccccc2)o1 | 452 | 432 | 410 | 452 | 468 | 388 | 456 | 418 | 457
NC[C@H]1O[C@H](O[C@H]2[C@H](O)[C@@H](O[C@H]3O[C@H](CO)[C@@H](O)[C@H](N)[C@H]3O)[C@H](N)C[C@@H]2N)[C@H](N)C[C@@H]1O | 459 | 455 | 413 | 455 | 470 | 469 | 467 | 467 | 452
OC[C@H]1OC(OC2=CC3=C(C(=C2)O)C(=O)\C(=C/O3)C4=CC=C(O)C=C4)[C@H](O)[C@@H](O)[C@@H]1O (stereo not given in full) | 405 | 401 | 391 | 408 | 454 | 451 | 391 | 407 | 372
CC1=C(/C=C/C(C)=C/C=C/C(C)=C/C(=O)O)C(C)(C)CCC1 | 468 | 464 | 467 | 475 | 465 | 450 | 434 | 443 | 412
Cc1ccc(-c2cc(C(F)(F)F)nn2-c2ccc([S+](N)(=O)[O-])cc2)cc1 | 471 | 463 | 468 | 464 | 460 | 470 | 451 | 468 | 463
CN(C)CCc1c[nH]c2ccc(C[S+](=O)([O-])N3CCCC3)cc12 | 471 | 466 | 466 | 453 | 427 | 433 | 459 | 468 | 460
C[C@H]1Oc2cc(cnc2N)-c2c(nn(C)c2C#N)CN(C)C(=O)c2ccc(F)cc21 | 462 | 463 | 461 | 446 | 457 | 473 | 459 | 467 | 463
N#C/C(=C1/Nc2ccccc2S1)c1ccnc(OCc2ccc(CN3CCOCC3)cc2)n1 | 429 | 422 | 434 | 468 | 472 | 461 | 399 | 412 | 407
N[C@@H](Cc1ccc(O)c(O)c1)C(=O)O | 471 | 454 | 466 | 456 | 433 | 458 | 459 | 475 | 456
N=C(N)Nc1ccc(C(=O)Oc2ccc3cc(C(=N)N)ccc3c2)cc1 | 437 | 443 | 404 | 419 | 392 | 441 | 446 | 406 | 396
CO[C@@H]1[C@@H](O)[C@H](O)[C@@H](n2c3c(Cl)cccc3c3c4c(c5c6cccc(Cl)c6[nH]c5c32)C(=O)NC4=O)O[C@H]1CO | 266 | 259 | 251 | 292 | 254 | 283 | 340 | 323 | 325
CCCCCN(CCC12CC3CC(CC(C3)C1)C2)C(=O)NCCCc1ccncc1 | 458 | 469 | 465 | 472 | 463 | 466 | 454 | 465 | 467
C[C@@H](N)C1CC[C@@H](CC1)C(=O)NC2=CC=NC=C2 (stereo not given in full) | 469 | 470 | 470 | 438 | 452 | 464 | 472 | 462 | 466
C1CN\2C[C@@H](\N=C2S1)C3=CC=CC=C3 | 467 | 462 | 455 | 459 | 396 | 476 | 465 | 442 | 429
CC(C)Cn1cnc2c(N)nc3ccccc3c21 | 442 | 451 | 463 | 459 | 452 | 455 | 450 | 466 | 448
CC(C)[N+]1(C)C2CCC1CC(OC(=O)C(CO)c1ccccc1)C2.O.[Br-] (stereo not given) | 383 | 427 | 417 | 449 | 423 | 422 | 423 | 457 | 450
COc1ccc(C2(C#N)CCC(C(=O)O)CC2)cc1OC1CCCC1 (stereo not given) | 475 | 466 | 464 | 439 | 443 | 443 | 465 | 434 | 471
Cc1cccc(-c2[nH]c(C(C)(C)C)nc2-c2ccc3c(c2)OCO3)n1 | 413 | 406 | 423 | 411 | 409 | 411 | 418 | 399 | 398
CCOCC(O)COc1ccc(NC(=O)CC[S+](C)C)cc1 (stereo not given) | 442 | 452 | 408 | 451 | 424 | 433 | 460 | 411 | 413
CC(C)c1c(C(=O)Nc2ccccc2)c(-c2ccccc2)c(-c2ccc(F)cc2)n1CC[C@@H](O)C[C@@H](O)CC(=O)[O-] | 448 | 400 | 409 | 440 | 439 | 447 | 428 | 431 | 412
CC[C@H]1CN2CCc3cc(OC)c(OC)cc3[C@@H]2C[C@@H]1C[C@H]1NCCc2cc(OC)c(OC)cc21 | 289 | 279 | 300 | 193 | 214 | 240 | 305 | 300 | 305
OCCN(CCO)c1nc(N2CCCCC2)c2nc(N(CCO)CCO)nc(N3CCCCC3)c2n1 | 459 | 467 | 463 | 454 | 457 | 461 | 459 | 438 | 465
COc1ccc(-c2oc3cc(OC)ccc3c2C(=O)c2ccc(C#N)cc2)cc1 | 354 | 345 | 374 | 455 | 460 | 451 | 326 | 311 | 321
Cn1cnc([N+](=O)[O-])c1Sc1ncnc2nc[nH]c12 | 381 | 365 | 367 | 398 | 337 | 299 | 353 | 342 | 353
Clc1ccccc1C(c1ccccc1)(c1ccccc1)n1ccnc1 | 448 | 426 | 448 | 425 | 416 | 412 | 451 | 443 | 468
